≈ marks a conversion by molar mass, not a printed value. Entries after “also recorded” stand apart in the source; their conditions may differ. Marks after values point to notes of the source that are not given here.
Columns and labels:
Caco-2 cells = assay: Recovery of test article in the Caco-2 efflux assay; type: in vitro ADME; settings: 1 and 10 μM, in the presence of cells
Experimental: Non-specific binding of phenylacetic acid to the transwell assay plate in the absence of cells was not conducted. However, the recovery of the test article (1 and 10 μM) was determined in the Caco-2 efflux assay, in the presence of cells, and was acceptable.

BSEP [1] = target: T1, BSEP (Homo sapiens, UniProt O95342); assay: in vitro
T1 sequence (O95342 whole entry): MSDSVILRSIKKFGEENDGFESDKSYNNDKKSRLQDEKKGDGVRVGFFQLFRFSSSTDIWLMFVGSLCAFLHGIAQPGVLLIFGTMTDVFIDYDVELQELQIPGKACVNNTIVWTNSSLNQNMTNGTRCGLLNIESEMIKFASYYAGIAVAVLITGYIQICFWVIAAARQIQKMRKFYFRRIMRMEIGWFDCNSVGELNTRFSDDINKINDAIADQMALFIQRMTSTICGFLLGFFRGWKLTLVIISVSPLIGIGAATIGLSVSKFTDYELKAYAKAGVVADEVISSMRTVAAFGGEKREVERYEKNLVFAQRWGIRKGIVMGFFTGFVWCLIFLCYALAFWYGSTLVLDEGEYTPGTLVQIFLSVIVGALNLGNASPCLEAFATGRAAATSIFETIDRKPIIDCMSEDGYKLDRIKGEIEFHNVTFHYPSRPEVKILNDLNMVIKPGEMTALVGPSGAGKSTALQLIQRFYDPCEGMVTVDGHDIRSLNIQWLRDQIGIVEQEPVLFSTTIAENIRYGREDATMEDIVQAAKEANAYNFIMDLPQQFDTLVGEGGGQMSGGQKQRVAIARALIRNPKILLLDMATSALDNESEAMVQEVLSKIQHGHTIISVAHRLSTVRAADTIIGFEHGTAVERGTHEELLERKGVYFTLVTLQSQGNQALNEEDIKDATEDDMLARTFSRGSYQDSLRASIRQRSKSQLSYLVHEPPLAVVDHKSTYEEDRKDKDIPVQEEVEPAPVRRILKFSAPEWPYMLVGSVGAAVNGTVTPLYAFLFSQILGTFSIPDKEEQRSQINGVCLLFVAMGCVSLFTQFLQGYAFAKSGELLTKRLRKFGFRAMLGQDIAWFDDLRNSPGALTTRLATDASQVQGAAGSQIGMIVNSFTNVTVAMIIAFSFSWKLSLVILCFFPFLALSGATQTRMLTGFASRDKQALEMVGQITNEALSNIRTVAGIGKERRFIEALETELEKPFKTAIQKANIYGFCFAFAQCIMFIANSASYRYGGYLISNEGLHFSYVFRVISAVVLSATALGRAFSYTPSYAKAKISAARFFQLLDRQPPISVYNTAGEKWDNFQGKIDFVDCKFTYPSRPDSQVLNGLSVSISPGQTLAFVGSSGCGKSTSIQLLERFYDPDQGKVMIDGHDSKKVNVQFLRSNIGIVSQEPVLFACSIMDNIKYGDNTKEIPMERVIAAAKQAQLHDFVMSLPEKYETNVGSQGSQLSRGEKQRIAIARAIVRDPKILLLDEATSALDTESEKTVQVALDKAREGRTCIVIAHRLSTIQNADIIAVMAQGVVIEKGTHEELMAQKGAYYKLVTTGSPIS

[2] = Solubility in stock solvent and assay buffers
BSEP [3] = target: T1, BSEP; assay: Inhibition of 3H-taurocholic acid uptake by BSEP membrane vesicles (inhibitor assessment); settings: for inhibitor of BSEP (conclusion in words): criterion >25% concentration-dependent inhibition of probe substrate uptake; for ATP-Dependent Uptake Activity of 3H-taurocholic acid / Signal-to-Noise Ratio / Uptake Activity of 3H-taurocholic acid, Mg-AMP / Uptake Activity of 3H-taurocholic acid, Mg-ATP: 3H-taurocholic acid 1 μM
BSEP [4] = target: T1, BSEP; assay: ATP-dependent uptake of test article by BSEP-transfected Sf9 membrane vesicles (substrate assessment); settings: for substrate of BSEP (conclusion in words): criteria ≥2-fold ATP-dependent uptake and >50% inhibition by selective inhibitor
[5] = test article 1 μM + cyclosporine 20 μM
[6] = test article 10 μM + cyclosporine 20 μM

SMILES: O=C(O)Cc1ccccc1 [Phenylacetic acid]
- recovery of the test article in the Caco-2 efflux assay (Caco-2 cells): acceptable
- activity at 30 min, 750 μM (BSEP [1]): 99.6%
- activity at 30 min, 7500 μM (BSEP [1]): 0%
- potency estimated from few doses at 30 min (BSEP [1]): < 7.5 mM
- solubility ([2]; aqueous buffer, kinetic from dmso stock): 7.5 mM (≈ 1.02 mg/mL)
- solubility ([2]; methanol, organic solvent or mixture): 1500 mM (≈ 204 mg/mL)
- inhibitor of BSEP (conclusion in words) (BSEP [3]): strongly inhibited; also recorded: identified as an inhibitor of BSEP; also recorded: inhibited BSEP
- inhibitor of BSEP (conclusion in words) (BSEP [3]; listed as phenylacetic acid): inhibit BSEP
- ATP-Dependent Uptake Activity of 3H-taurocholic acid (BSEP [3]; inhibitor 750 μM): 4.68 pmol/minute/mg protein
- Signal-to-Noise Ratio (BSEP [3]; inhibitor 750 μM): 17.2
- Uptake Activity of 3H-taurocholic acid, Mg-AMP (BSEP [3]; inhibitor 750 μM): 0.288 pmol/minute/mg protein
- Uptake Activity of 3H-taurocholic acid, Mg-ATP (BSEP [3]; inhibitor 750 μM): 4.96 pmol/minute/mg protein
- ATP-Dependent Uptake Activity of 3H-taurocholic acid (BSEP [3]; inhibitor 7500 μM): −0.136 pmol/minute/mg protein
- Signal-to-Noise Ratio (BSEP [3]; inhibitor 7500 μM): 0.731
- Uptake Activity of 3H-taurocholic acid, Mg-AMP (BSEP [3]; inhibitor 7500 μM): 0.506 pmol/minute/mg protein
- Uptake Activity of 3H-taurocholic acid, Mg-ATP (BSEP [3]; inhibitor 7500 μM): 0.370 pmol/minute/mg protein
- ATP-Dependent Uptake Activity of test article (BSEP [4]; test article 1 μM): 24.2 pmol/minute/mg protein
- Signal-to-Noise Ratio (BSEP [4]; test article 1 μM): 9.95
- Uptake Activity of test article, Mg-AMP (BSEP [4]; test article 1 μM): 2.71^b pmol/minute/mg protein
- Uptake Activity of test article, Mg-ATP (BSEP [4]; test article 1 μM): 26.9 pmol/minute/mg protein
- ATP-Dependent Uptake Activity of test article (BSEP [4]; [5]): 18.3 pmol/minute/mg protein
- Signal-to-Noise Ratio (BSEP [4]; [5]): 3.41
- Uptake Activity of test article, Mg-AMP (BSEP [4]; [5]): 7.60^c pmol/minute/mg protein
- Uptake Activity of test article, Mg-ATP (BSEP [4]; [5]): 25.9 pmol/minute/mg protein
- ATP-Dependent Uptake Activity of test article (BSEP [4]; test article 10 μM): 814 pmol/minute/mg protein
- Signal-to-Noise Ratio (BSEP [4]; test article 10 μM): 12.6
- Uptake Activity of test article, Mg-AMP (BSEP [4]; test article 10 μM): 70.3 pmol/minute/mg protein
- Uptake Activity of test article, Mg-ATP (BSEP [4]; test article 10 μM): 884 pmol/minute/mg protein
- ATP-Dependent Uptake Activity of test article (BSEP [4]; [6]): 772 pmol/minute/mg protein
- Signal-to-Noise Ratio (BSEP [4]; [6]): 10.1
- Uptake Activity of test article, Mg-AMP (BSEP [4]; [6]): 84.7 pmol/minute/mg protein
- Uptake Activity of test article, Mg-ATP (BSEP [4]; [6]): 857 pmol/minute/mg protein
- ATP-dependent BSEP uptake activity relative to AMP uptake (BSEP [4]; test article 1 and 10 μM): > 2 fold
- substrate of BSEP (conclusion in words) (BSEP [4]; test article 1 and 10 μM): not identified as a substrate
- substrate of BSEP (conclusion in words) (BSEP [4]; test article 1 and 10 μM, listed as phenylacetic acid): not a substrate; also recorded: unlikely that phenylacetic acid is a substrate
- inhibition of test article uptake by cyclosporine A (BSEP [4]; test article 1 and 10 μM, cyclosporine A 20 μM): not inhibited by cyclosporine A

From US12138272B2, “Methods and compositions for treating amyotrophic lateral sclerosis” (Amylyx Pharmaceuticals, Inc., priority 2022, dated 2024)
